Assay results as given in patent publication US4376789A, “Surfactants which are polyhydric alcohol partial esters of adducts of maleic anhydride with an unsaturated carboxylic acid” (Grillo-Werke AG, priority 1980, dated 1983).

Test system: eye
Test: Eye irritation test according to Draize
Format: in vivo
Excerpt: The good compatibility of the partial esters according to the invention with skin and mucous membranes is evident from the following investigations. In Table 1, the results of an eye irritation test, according to Draize, for the products of the invention are compared with those of anionic surfactants known to be acceptable dermatologically. It should be noted that substantially higher concentrations of the active products of the invention, than of the prior art compounds, were used in the test.
The Draize test was performed according to the provisions of the Appraisal of the Safety of Chemicals in Food, Drugs and Cosmetics, published by the United States Food and Drug Administration in 1959. According to this method, appraisal points are assigned as follows: […]

CCCCCCCCCCCCOS(=O)(=O)O.N [Ammonium lauryl sulfate]
Evaluation points according to Draize score (concentration % active substance: 100 (Examples 1, 3, 4), 65 (Example 2), 50 (Example 5, Na lauryl ether sulfate, undecylic acid semi-ester Na salt), 40 (tallow coco fat alcohol sulfate Na salt), 35 (ammonium lauryl sulfate)): 12.9 Points

Tallow coco fat alcohol sulfate Na salt
Evaluation points according to Draize score (in vivo): 24.3 Points
Evaluation range (Draize) (in vivo): Slightly irritant

Na lauryl ether sulfate
Evaluation points according to Draize score (in vivo): 14.2 Points
Evaluation range (Draize) (in vivo): Slightly irritant

CCCCCCCCCCC(=O)NCCOC(=O)CC(C(=O)[O-])S(=O)(=O)O.CCCCCCCCCCC(=O)NCCOC(=O)CC(C(=O)[O-])S(=O)(=O)O.[Na+].[Na+] (stereo not shown) [Na salt of undecylic acid monethanolamide sulfo succinic acid semi-ester]
Evaluation points according to Draize score (in vivo): 19.6 Points
Evaluation range (Draize) (in vivo): Slightly irritant
